Data: patent publication US20230094568A1, “METHOD FOR SUPPRESSING DIFFERENTIATION OF PLURIPOTENT STEM CELLS” (KANEKA CORPORATION, priority 2020, published 2023)

Tested on: Human iPS cell WTC-11 strain
Assay: Quantitative real-time PCR of marker genes after suspension culture (Example 2)
Format: cell-based
Conditions: WTC-11, day 10 of suspension culture, inhibitor(s) in medium
Description: After the EDTA solution was sucked up, StemFit® AK02N medium was added to the dish, cells were detached with a cell scraper, and then dispersed into single cells by pipetting. […] Into a 6-well plate for suspension culture (Sumitomo Bakelite Co., Ltd.), 4 mL of the cell suspension was seeded per well. On a rotary shaker (Optima Co., Ltd.), the plate into which the cells had been seeded was rotated along a circle having a rotation width (diameter) of 25 mm in the horizontal plane at a speed of 90 rpm, and suspension culture was performed under an environment at 37° C. and 5% CO2. Subculture was performed on day 5 of culture as the day on which the cells were seeded was defined as day 0 of culture, and suspension culture was performed until day 10 of culture. Medium exchange was performed on day 2, 4, 7, and 9 of culture. […] On day 5 of culture, a cell aggregate and culture supernatant were collected from each well into a centrifuge tube, left to stand for about 5 minutes to precipitate the cell aggregate, and the culture supernatant was removed. […]
Quantitative real-time PCR analysis was performed with a procedure shown in the following. […] Quantitative real-time PCR analysis was carried out by using a TaqMan® QuantStudio3 real-time PCR system (Thermo Fisher Scientific).

Row | Structure (SMILES) | ACTB-normalized relative gene expression level (2^−ΔCt) OCT4
1 | COc1ccc2c(c1)c(C1=C(c3c[nH]c4ccccc34)C(=O)NC1=O)cn2CCCN(C)C [Comparative Example 3, 3-[1-[3-(dimethylamino)propyl]-5-methoxy-1H-indol-3-yl]-4-(1H-indol-3-yl)-1H-pyrrole-2,5-dione] | 3.30 × 10^−3
2 | O=C(Nc1cccc2cccnc12)c1ccc(N2C(=O)[C@@H]3[C@H](C2=O)[C@@H]2C=C[C@H]3C2)cc1 [Comparative Example 2, 4-(1,3,3a,4,7,7a-hexahydro-1,3-dioxo-4,7-methano-2H-isoindol-2-yl)-N-8-quinolinyl-benzamide] | 2.05
